The target of assay [1] is 11S-BRD4/114-Histone H3.3 complex (Homo sapiens, UniProt O60885). The assay can be described thus: Competitive displacement of iBET-NCT tracer from 11S-BRD4/Histone H3.3-114 complex, BRET (Example 22). Conditions: HEK293 cells, 2 uM iBET-NCT/PBI-4966 tracer, FIG. 28. It is filed as binding. (In general: BRET reads energy transfer from a luciferase to a nearby fluorophore.)

The test system of assay [2] is NanoLuc fusions to various members of the MAPK pathway. Put plainly: Tracer selectivity across p38/MAPK pathway NanoLuc fusions, BRET response ratio (Example 12). The conditions noted are these: HEK293 cells, 2 uM tracer with or without 4 uM BIRB796, FIG. 13. It is filed as binding. As to the method:
(§1) Cells were incubated at 37° C. for two hours. […] To determine response ratios, the BRET values with tracer alone were divided by the BRET values with tracer+unmodified BIRB796.

The target in assay [3] is T1, PKCalpha-NanoLuc (Homo sapiens, UniProt P17252).
T1 construct: expressed in transfected cells; host or cells: HEK293
Put plainly: Tracer affinity BRET, PKCalpha-NanoLuc (Example 13). It is filed as binding. The conditions noted are these: HEK293 cells, serially-diluted tracer with or without 4 uM BIRB796, FIGS. 14 and 15. As to the method:
(§2) Cells were incubated at 37° C. for two hours.

The target in assay [4] is T1, PKCalpha-NanoLuc. Put plainly: Tracer BRET with PKCalpha-NanoLuc in MAPK panel (Example 12). It is filed as binding. The conditions noted are these: HEK293 cells, 2 uM tracer with or without 4 uM BIRB796, FIG. 13. As to the method: as §1
Assay [5] addresses T2, NanoLuc-p38alpha (Homo sapiens, UniProt Q16539).
T2 construct: expressed in transfected cells; host or cells: HEK293
The assay can be described thus: BRET tracer binding to NanoLuc-p38alpha in HEK293 cells (Example 10). The conditions noted are these: serially-diluted tracer, 37° C. two hours, FIG. 11. The protocol: as §2

Assay [6] deals with panel of 11 kinases (N- and C-terminal NanoLuc fusions). The assay can be described thus: NanoLuc fusion protein array screen, cell-free TNT expression, BRET response ratio (Example 17). It is filed as binding. Conditions: cell-free TNT reactions diluted 1:100, tracer with or without excess free drug, 2 h room temperature, FIG. 19. The protocol:
Each TNT® reaction was diluted 1:100 in PBS and plated in replicates into wells of 96-well plates. […] For each TNT® reaction, 4 replicates with 2 uM BIRB TOM/4 replicates with 2 uM BIRB-TOM+4 uM BIRB796 (total of 2×96-well plates) and 4 replicas with 1 uM Dasatinib-TOM/4 replicates with 1 uM Dasatinib-TOM+5 uM Dasatinib (total of 2×96-well plates) were performed. The reactions were incubated with constant mixing for 2 h at room temperature. […] To determine response ratios, the BRET values with tracer alone were divided by the BRET values with tracer+unmodified.

In assay [7] the target is T3, NanoLuc-HDAC6 (Homo sapiens, UniProt Q9UBN7).
T3 construct: expressed in transfected cells; host or cells: HEK293
Put plainly: Tracer affinity BRET, NanoLuc-HDAC6 (Example 13). It is filed as binding. The conditions noted are these: HEK293 cells, serially-diluted tracer with or without 4 uM BIRB796, FIGS. 14 and 15. As to the method:
as §2

Assay [8] deals with Class IIa HDACs. The assay can be described thus: SAHA tracer BRET with Class IIa HDAC NANOLUC fusions in HeLa cells (Example 23). It is filed as binding. The conditions noted are these: FIG. 31. As to the method: (§3) HeLa cells were transfected with plasmid DNA encoding NANOLUC fusions with the entire family of non-sirtuin histone deacetylases (HDACs 1-11). […] Cells were incubated at 37° C. for two hours. […] BRET was then measured on a BMG Clariostar luminometer equipped with 450 nm bandpass and 610 nm longpass filters. […] To determine specific, background corrected BRET values, the nonspecific BRET values at each concentration of tracer were subtracted from BRET values with tracer alone.

Assay [9] addresses T4, HDAC6 (Homo sapiens, UniProt Q9UBN7).
T4 construct: expressed in transfected cells; host or cells: HeLa
The assay can be described thus: SAHA tracer BRET with HDAC6 NANOLUC fusion in HeLa cells (Example 23). It is filed as binding. Conditions: FIG. 30. As to the method:
as §3

Assay [10] addresses T5, HDAC3 (Homo sapiens, UniProt O15379).
T5 construct: expressed in transfected cells; host or cells: HeLa
The assay can be described thus: SAHA tracer BRET with HDAC3 NANOLUC fusion in HeLa cells (Example 23). It is filed as binding. Conditions: FIG. 29. As to the method: as §3

Assay [11] concerns the target T6, HDAC1 (Homo sapiens, UniProt Q13547).
T6 construct: expressed in transfected cells; host or cells: HeLa
Put plainly: SAHA tracer BRET with HDAC1 NANOLUC fusion in HeLa cells (Example 23). It is filed as binding. The conditions noted are these: FIG. 29. The protocol: as §3

Assay [12] deals with T3, NanoLuc-HDAC6. The assay can be described thus: Intracellular BRET tracer binding to NanoLuc-HDAC6 (Example 1). Conditions: HEK293 cells, compared to SAHA-TMR (PBI-4967), FIG. 2. The protocol:
HEK293 cells were transfected using FuGene HD (Promega Corp.) with plasmid DNA encoding a NanoLuc-HDAC6 fusion protein. NanoLuc-HDAC6 DNA was diluted 1:1000 with a promoterless carrier DNA (pGEM3Z) to yield a final concentration of 50 ng/well total DNA in 96-well plate format (at a seeding density of 20,000 cells/well). Twenty-four hours post-transfection, cells were then incubated with serially-diluted tracer in the presence or absence of a molar excess of unlabeled SAHA (as a specificity control). Following equilibration with the drug tracers, furimazine (a coelenterazine derivative substrate for NanoLuc; Promega Corp.) was added at a concentration of 20 uM, and BRET was quantified on a Varioskan luminometer. The specific BRET signal was calculated by subtracting the non-specific signal (in the presence of unlabeled SAHA) from the signal generated from the SAHA tracer alone.

Assay [13] deals with T7, HDAC8 (Homo sapiens, UniProt Q9BY41).
T7 construct: expressed in transfected cells; host or cells: HeLa
T7 sequence (Q9BY41 1-377): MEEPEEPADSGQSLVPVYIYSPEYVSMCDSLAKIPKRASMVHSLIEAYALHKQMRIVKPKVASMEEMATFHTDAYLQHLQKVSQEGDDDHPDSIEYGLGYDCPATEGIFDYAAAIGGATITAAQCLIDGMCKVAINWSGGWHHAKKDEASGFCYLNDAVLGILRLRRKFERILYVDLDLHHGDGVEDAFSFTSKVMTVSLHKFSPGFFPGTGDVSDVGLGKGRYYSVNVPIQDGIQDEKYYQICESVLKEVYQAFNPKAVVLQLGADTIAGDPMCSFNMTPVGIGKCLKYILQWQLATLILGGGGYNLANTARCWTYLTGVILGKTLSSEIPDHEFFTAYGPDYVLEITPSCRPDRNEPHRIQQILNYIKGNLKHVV
The assay can be described thus: SAHA tracer BRET with HDAC8 NANOLUC fusion in HeLa cells (Example 23). It is filed as binding. Conditions: FIG. 29. As to the method: as §3

For assay [14], the target named is T8, HDAC10 (Homo sapiens, UniProt Q969S8).
T8 construct: expressed in transfected cells; host or cells: HeLa
T8 sequence (Q969S8 1-669): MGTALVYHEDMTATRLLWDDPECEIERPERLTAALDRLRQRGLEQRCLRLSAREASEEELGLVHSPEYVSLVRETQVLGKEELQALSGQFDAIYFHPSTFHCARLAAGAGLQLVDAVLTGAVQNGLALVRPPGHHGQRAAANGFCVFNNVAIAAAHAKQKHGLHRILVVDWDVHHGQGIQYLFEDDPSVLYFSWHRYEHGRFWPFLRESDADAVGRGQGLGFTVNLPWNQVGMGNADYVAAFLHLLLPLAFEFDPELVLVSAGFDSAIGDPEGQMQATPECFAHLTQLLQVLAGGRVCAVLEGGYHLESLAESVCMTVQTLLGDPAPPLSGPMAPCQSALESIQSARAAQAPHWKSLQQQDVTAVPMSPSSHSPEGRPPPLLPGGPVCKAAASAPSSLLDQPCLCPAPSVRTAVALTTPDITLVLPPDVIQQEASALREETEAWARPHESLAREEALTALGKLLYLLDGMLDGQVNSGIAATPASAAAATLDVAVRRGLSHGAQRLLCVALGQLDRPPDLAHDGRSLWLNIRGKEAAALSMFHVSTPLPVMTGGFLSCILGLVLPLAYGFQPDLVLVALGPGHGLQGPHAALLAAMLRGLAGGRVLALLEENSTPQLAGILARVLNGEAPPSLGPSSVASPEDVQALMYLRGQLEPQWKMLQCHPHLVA
The assay can be described thus: SAHA tracer BRET with HDAC10 NANOLUC fusion in HeLa cells (Example 23). It is filed as binding. The conditions noted are these: FIG. 30. As to the method: as §3

For assay [15], the target named is T9, HDAC2 (Homo sapiens, UniProt Q92769).
T9 construct: expressed in transfected cells; host or cells: HeLa
The assay can be described thus: SAHA tracer BRET with HDAC2 NANOLUC fusion in HeLa cells (Example 23). It is filed as binding. Conditions: FIG. 29. The protocol: as §3

In assay [16] the target is T3, NanoLuc-HDAC6. The assay can be described thus: Competitive displacement of SAHA-TOM tracer from NanoLuc-HDAC6, BRET (Example 15). It is filed as binding. The conditions noted are these: HEK293 cells, serially-diluted inhibitor with 1 uM SAHA-TOM (PBI-4968), two hours, FIG. 17.

T3 sequence (Q9UBN7 with tags, fused parts or gaps): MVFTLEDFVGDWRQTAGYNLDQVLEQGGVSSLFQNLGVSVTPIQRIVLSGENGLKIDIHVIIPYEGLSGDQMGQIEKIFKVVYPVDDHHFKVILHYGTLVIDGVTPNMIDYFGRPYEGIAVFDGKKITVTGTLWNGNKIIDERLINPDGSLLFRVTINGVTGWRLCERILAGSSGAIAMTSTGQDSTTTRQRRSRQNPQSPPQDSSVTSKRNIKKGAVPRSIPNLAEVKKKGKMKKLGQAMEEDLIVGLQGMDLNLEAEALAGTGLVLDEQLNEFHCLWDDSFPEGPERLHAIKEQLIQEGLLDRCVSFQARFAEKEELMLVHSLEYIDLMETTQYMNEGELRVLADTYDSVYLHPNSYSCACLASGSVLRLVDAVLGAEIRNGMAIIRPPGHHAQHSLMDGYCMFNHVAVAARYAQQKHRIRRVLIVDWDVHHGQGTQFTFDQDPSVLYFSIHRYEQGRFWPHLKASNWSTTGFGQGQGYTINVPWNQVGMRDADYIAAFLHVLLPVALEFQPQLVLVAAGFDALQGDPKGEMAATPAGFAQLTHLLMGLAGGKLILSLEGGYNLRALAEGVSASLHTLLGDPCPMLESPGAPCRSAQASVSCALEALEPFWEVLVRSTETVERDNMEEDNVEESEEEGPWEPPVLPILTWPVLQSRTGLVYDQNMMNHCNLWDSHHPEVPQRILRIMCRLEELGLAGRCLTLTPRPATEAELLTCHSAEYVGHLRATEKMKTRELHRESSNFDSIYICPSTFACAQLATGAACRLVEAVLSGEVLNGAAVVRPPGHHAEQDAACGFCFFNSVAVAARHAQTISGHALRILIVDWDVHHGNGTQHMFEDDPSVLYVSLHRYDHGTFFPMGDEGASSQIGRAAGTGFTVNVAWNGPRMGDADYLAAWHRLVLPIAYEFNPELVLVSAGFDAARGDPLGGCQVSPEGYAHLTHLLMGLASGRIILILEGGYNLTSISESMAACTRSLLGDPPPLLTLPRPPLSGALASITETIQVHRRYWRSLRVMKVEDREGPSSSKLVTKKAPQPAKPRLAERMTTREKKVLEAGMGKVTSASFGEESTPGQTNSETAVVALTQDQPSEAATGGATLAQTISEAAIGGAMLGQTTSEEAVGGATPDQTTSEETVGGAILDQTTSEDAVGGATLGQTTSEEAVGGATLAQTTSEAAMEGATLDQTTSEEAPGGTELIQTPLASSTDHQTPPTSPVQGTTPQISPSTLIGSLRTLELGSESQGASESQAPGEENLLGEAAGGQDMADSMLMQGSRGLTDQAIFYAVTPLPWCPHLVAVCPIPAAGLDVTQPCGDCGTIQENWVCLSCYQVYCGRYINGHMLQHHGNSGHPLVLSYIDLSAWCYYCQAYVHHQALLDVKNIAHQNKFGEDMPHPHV
T9 sequence (Q92769 whole entry): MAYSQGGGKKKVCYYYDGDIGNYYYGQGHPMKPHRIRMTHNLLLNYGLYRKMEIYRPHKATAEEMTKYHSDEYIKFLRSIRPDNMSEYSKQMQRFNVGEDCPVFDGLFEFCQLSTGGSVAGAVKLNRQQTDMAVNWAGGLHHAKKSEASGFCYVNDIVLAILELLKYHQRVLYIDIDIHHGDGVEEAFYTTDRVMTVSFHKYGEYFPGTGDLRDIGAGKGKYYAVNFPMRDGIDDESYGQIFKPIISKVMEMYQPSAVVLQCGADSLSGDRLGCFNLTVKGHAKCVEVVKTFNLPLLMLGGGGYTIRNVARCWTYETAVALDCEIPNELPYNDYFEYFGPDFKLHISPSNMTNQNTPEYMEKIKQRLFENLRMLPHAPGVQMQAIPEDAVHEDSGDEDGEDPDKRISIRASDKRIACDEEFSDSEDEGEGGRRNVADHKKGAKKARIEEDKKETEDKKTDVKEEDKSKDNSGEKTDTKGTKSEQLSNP
T6 sequence (Q13547 whole entry, species assumed): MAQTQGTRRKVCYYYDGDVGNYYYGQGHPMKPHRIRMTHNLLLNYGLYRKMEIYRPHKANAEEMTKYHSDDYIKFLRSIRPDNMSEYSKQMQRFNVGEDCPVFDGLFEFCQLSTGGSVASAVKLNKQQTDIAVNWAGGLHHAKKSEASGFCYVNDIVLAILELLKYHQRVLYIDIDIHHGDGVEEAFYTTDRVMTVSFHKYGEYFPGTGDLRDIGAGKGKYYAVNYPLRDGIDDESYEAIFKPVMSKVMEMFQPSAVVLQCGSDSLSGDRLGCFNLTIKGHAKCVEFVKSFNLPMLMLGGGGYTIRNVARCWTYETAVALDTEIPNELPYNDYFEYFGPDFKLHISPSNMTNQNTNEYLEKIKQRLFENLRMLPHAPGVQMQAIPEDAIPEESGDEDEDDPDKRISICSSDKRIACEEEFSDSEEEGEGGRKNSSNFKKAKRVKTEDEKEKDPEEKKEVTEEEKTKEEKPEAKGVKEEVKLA
T5 sequence (O15379 whole entry): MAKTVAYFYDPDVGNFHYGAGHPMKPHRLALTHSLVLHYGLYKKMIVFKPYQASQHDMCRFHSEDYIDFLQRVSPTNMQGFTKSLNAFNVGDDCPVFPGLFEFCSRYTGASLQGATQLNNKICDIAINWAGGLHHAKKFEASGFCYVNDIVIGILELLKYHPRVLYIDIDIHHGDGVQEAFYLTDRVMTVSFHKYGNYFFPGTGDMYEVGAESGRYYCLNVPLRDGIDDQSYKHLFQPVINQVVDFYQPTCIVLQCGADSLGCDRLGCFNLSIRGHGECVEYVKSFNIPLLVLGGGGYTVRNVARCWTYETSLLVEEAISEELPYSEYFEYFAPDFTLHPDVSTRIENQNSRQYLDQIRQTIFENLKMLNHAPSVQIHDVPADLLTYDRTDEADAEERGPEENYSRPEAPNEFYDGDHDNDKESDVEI
T4 sequence (Q9UBN7 with tags, fused parts or gaps): as the sequence (Q9UBN7 with tags, fused parts or gaps) above
T2 sequence (Q16539 whole entry): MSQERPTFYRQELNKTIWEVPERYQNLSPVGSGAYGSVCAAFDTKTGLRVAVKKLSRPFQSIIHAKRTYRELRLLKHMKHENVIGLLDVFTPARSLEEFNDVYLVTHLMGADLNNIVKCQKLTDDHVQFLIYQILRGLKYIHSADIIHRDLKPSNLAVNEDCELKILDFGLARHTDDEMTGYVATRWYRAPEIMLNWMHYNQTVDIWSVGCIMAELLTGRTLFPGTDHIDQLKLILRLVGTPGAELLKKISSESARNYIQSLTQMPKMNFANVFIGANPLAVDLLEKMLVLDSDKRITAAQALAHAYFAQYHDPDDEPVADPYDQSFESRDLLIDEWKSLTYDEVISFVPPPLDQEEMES

As to `COc1cc2c(cc1-c1c(C)noc1C)ncc1[nH]c(=O)n([C@H](C)c3ccccn3)c12` [IBET 151], in assay [1], the “effect on BRET signal (competitive binding)” value is given as “diminished in a dose-dependent manner”.
Consider `CC(C)(C)c1cc(NC(=O)Nc2ccccc2)n(-c2cccc(CNC(=O)CN)c2)n1` [PBI-4838], for which the “selectivity of tracer (targets giving specific BRET)” value in [2] is “Jnk2, p38beta and p38alpha”. The “specific BRET signal” value in [3], in assay [4] and in assay [7] was “relatively little specific BRET signal” throughout. For the same molecule, in [5], the EC50 (as a rule, the concentration needed to bring the measured effect to its halfway point) is 38 nM. Besides, in assay [6], the “selectivity of tracer (hits in NanoLuc fusion array)” value is “JNk2, JNk3, MAPK14, MAPK11 and MAPK13”.
Regarding `O=C(CCCCCCC(=O)Nc1ccc(CNC(=O)c2ccc(C(=O)O)c(C3=c4cc5c6c(c4Oc4c3cc3c7c4CCCN7CCCC3)CCC[N+]=6CCCC5)c2)cc1)NO` [PBI-4968], the BRET with tracer result in assay [8] is given as “do not generate significant BRET”; in [9], “specific BRET”; in assay [10] it was “specific BRET signals”; in assay [11], “specific BRET signals”; in [13], “specific BRET signals”; in assay [14] it was “specific BRET”. The BRET with tracer result in assay [15] is “specific BRET signals”. For the same molecule, in [12], the “EC50 value for binding within living cells” value is reported as “left-shifted EC50 value”. Moreover, the “specific BRET signal” value in assay [12] was “superior, specific BRET signal”.
`Cc1nc(Nc2ncc(C(=O)Nc3c(C)cccc3Cl)s2)cc(N2CCN(CCOC(=O)NCCCCCNC(=O)c3ccc(C(=O)O)c(C4=c5cc6c7c(c5Oc5c4cc4c8c5CCCN8CCCC4)CCC[N+]=7CCCC6)c3)CC2)n1` [PBI-5170]: the “selectivity of tracer (hits in NanoLuc fusion array)” value in assay [6] is “ABL1, Src, LCK, MEK5, MAPK11 and MAPK14”.
For `O=C(CCCCCCC(=O)Nc1ccccc1)NO` [SAHA, suberoylanilide hydroxamic acid], the “binding efficiency to HDAC6” value in assay [16] is recorded as “high binding efficiency”.
